According to US20070219193A1, “ALKYLAMINE-SUBSTITUTED BICYCLIC ARYL COMPOUNDS USEFUL AS MODULATORS OF PPAR” (KALYPSYS, INC, priority 2006, published 2007):

Legend:
Format in all cases: cell-based
[1] = biological target: T1, PPAR alpha (Homo sapiens, UniProt Q07869); experiment: Full-length PPAR transcriptional activation assay (PPRE::Luciferase reporter, HEK293 cells), PPAR alpha; settings: transfected HEK293 cells, species of receptor not given
T1 construct: expressed in transfected cells; host or cells: HEK293
T1 sequence (Q07869 1-468): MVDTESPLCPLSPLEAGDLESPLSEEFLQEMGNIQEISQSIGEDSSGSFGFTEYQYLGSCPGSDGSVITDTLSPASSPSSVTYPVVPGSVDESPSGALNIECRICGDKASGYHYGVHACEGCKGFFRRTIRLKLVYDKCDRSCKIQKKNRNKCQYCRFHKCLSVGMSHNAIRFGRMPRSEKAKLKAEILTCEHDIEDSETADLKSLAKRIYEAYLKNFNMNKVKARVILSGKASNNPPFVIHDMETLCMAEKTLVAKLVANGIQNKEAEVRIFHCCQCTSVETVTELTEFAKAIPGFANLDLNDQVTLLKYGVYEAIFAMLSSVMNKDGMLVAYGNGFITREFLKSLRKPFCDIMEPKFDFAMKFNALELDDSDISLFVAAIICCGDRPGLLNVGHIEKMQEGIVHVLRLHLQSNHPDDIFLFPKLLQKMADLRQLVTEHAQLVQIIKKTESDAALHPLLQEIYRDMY
Protocol: (§1) HEK293 cells were seeded the day before transfection into 384-well plates at a cell density of 6,000 cells per well in 40 μl assay medium I (phenol red-free DMEM containing 4% charcoal-dextran stripped FBS, 1% Penicillin-Streptomycin and 1% GlutaMax-1). Then 25 ng of PPRE::Luciferase reporter plasmid, an expression plasmid (25 pg of PPARα, or 40 pg of PPARδ, or 75 pg of PPARγ2), and an appropriate amount of the plasmid pUC19 to bring the total DNA amount to 50 ng was added to 20 μl of phenol-red free DMEM and 150 nL of Fugene 6 and incubated for 30 minutes. The transfection mixtures were then added to the cells and incubated for three hours. 10 μl of test agents in 5% DMSO were then added to the cells and incubated at 37° C. for an additional 18 hours. Luciferase activity was then assayed by adding 25 μl/well of Britelite (Perkin Elmer) according to the manufacturer's protocol and relative light output was measured with an Analyst GT plate reader (Molecular Devices). All experimental points were done in triplicate and the assays were repeated at least 3 times.
(§2) HEK293 cells were seeded the day before transfection in […] dishes at a density of 9×10^6 cells/dish and incubated at 37° C., 10% CO2 for 16-24 hours. Then, […] of PPRE::Luciferase reporter plasmid, an expression plasmid (7.5 ng of PPARα, or 7.5 ng of PPARδ, or 75 ng of PPARγ2), and an appropriate amount of the plasmid pUC19 to bring the total DNA amount to […] were mixed with 54 μl of Fugene 6 in 2 mls of phenol red-free DMEM and incubated for 30 minutes. Transfection mixtures were then incubated with the cells for 18 hours. Cells were then replated into sterile, white TC treated 384-well assay plates at a cell density of 24×10^3 cells/well in 40 μl of assay medium II (phenol-red free DMEM containing 3% charcoal/dextran-stripped FBS, 1% Penicillin-Streptomycin and 1% GlutaMax-1) and incubated at 37° C. for 6 hours. 10 μl of test agents in 5% DMSO were then added to the cells and incubated at 37° C. for an additional 18 hours. Luciferase activity was then assayed by adding 30 μl/well of Britelite (Perkin Elmer) according to the manufacturer's protocol and relative light output was measured with an Analyst GT plate reader (Molecular Devices). All experimental points were done in triplicate and the assays were repeated 3 times.

[2] = biological target: T2, PPAR gamma (Homo sapiens, UniProt P37231); experiment: Full-length PPAR transcriptional activation assay (PPRE::Luciferase reporter, HEK293 cells), PPAR gamma; settings: transfected HEK293 cells (PPARγ2 plasmid), species of receptor not given
T2 construct: expressed in transfected cells; host or cells: HEK293
T2 sequence (P37231 1-505): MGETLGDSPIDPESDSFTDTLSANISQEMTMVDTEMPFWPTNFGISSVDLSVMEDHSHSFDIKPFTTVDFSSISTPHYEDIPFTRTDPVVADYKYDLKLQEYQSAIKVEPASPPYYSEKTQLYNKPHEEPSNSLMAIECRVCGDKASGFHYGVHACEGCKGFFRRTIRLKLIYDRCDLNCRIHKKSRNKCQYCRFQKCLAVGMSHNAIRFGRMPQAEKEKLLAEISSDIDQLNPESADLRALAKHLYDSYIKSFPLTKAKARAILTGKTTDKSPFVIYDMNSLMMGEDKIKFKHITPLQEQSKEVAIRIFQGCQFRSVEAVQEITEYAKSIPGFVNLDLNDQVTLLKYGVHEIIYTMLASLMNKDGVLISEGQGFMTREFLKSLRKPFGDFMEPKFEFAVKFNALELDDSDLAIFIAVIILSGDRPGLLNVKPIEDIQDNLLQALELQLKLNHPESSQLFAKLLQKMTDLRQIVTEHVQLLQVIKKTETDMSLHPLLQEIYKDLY
Protocol: as §1, §2

[3] = biological target: T3, PPAR delta (Homo sapiens, UniProt Q03181); experiment: Full-length PPAR transcriptional activation assay (PPRE::Luciferase reporter, HEK293 cells), PPAR delta; settings: transfected HEK293 cells, species of receptor not given
T3 construct: expressed in transfected cells; host or cells: HEK293
T3 sequence (Q03181 1-441): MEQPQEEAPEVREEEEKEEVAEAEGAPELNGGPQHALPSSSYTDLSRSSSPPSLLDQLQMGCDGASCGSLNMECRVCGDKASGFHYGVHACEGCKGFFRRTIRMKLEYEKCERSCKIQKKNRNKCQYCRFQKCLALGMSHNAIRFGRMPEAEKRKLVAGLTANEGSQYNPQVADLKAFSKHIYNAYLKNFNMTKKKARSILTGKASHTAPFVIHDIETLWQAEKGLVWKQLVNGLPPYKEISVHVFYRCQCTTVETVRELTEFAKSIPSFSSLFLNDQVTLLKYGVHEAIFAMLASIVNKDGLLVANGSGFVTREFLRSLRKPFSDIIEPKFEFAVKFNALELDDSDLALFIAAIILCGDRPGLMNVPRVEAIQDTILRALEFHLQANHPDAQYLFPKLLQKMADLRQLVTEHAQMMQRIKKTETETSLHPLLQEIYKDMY
Protocol: as §1, §2

Compound	EC50 [1]	EC50 [2]	EC50 [3]
CCc1cnc(N(CCCN2CCc3ccc(CC(=O)O)cc3C2)Cc2ccc(C(F)(F)F)cc2C(F)(F)F)nc1 [Example 2, (2-{3-[(2,4-Bis-trifluoromethyl-benzyl)-(5-ethyl-pyrimidin-2-yl)-amino]-propyl}-1,2,3,4-tetrahydro-isoquinolin-7-yl)-acetic acid]	> 1000 nM	≤ 1000 nM	≤ 1000 nM
CCc1cnc(N(CCCC2CCc3c(CC(=O)O)cccc3O2)Cc2ccc(OC(F)(F)F)cc2)nc1 (stereo not drawn) [Example 13, 2-(2-(3-((5-Ethylpyrimidin-2-yl)(4-(trifluoromethoxy)benzyl)amino)propyl)chroman-5-yl)acetic acid]	> 1000 nM	≤ 1000 nM	≤ 1000 nM
CCc1cnc(N(CCCC2Oc3cc(CC(=O)O)ccc3CC2C)Cc2ccc(OC(F)(F)F)cc2)nc1 (single isomer, unassigned) [Example 18A, 2-(2-(3-((5-ethylpyrimidin-2-yl)(4-(trifluoromethoxy)benzyl)amino)propyl)-3-methylchroman-7-yl)acetic acid]	> 1000 nM	≤ 1000 nM	≤ 1000 nM
CCc1cnc(N(CCCC2Oc3cccc(CC(=O)O)c3CC2C)Cc2ccc(OC(F)(F)F)cc2)nc1 (single isomer, unassigned) [Example 19D, 2-(2-(3-((5-ethylpyrimidin-2-yl)(4-(trifluoromethoxy)benzyl)amino)propyl)-3-methylchroman-5-yl)acetic acid]	> 1000 nM	≤ 1000 nM	≤ 1000 nM
CCc1cnc(N(CCCC2Oc3cc(CC(=O)O)ccc3CC2C)Cc2ccc(OC(F)(F)F)cc2)nc1 (single isomer, unassigned) [Example 18C]	≤ 1000 nM	> 1000 nM	≤ 1000 nM
CCc1cnc(N(CCCN2CCc3ccc(CC(=O)O)cc3C2)Cc2ccc(OC(F)(F)F)cc2)nc1 [Example 1, (2-{3-[(5-Ethyl-pyrimidin-2-yl)-(4-trifluoromethoxy-benzyl)-amino]-propyl}-1,2,3,4-tetrahydro-isoquinolin-7-yl)-acetic acid]	> 1000 nM	≤ 1000 nM	≤ 1000 nM
CCc1cnc(N(CCCC2CCc3ccc(CC(=O)O)cc3O2)CCc2ccc(OC(F)(F)F)cc2)nc1 (stereo not drawn) [Example 14, 2-(2-(3-((5-Ethylpyrimidin-2-yl)(4-(trifluoromethoxy)phenethyl)amino)propyl)chroman-7-yl)acetic acid]	> 1000 nM	≤ 1000 nM	≤ 1000 nM
CCc1cnc(N(CCCC2CCc3ccc(CC(=O)O)cc3O2)Cc2ccc(OC(F)(F)F)cc2)nc1 (stereo not drawn) [Example 12, 2-(2-(3-((5-Ethylpyrimidin-2-yl)(4-(trifluoromethoxy)benzyl)amino)propyl)chroman-7-yl)acetic acid]	> 1000 nM	≤ 1000 nM	≤ 1000 nM
